Source: patent US9365584B2, “Thieno [2,3-B] pyridinedione activators of AMPK and therapeutic uses thereof” (Poxel, priority 2009, dated 2016)

Test system: AMPK
Test: AMPK enzyme activity assay (Delfia technology, AMARA peptide substrate)
Format: biochemical
Settings: compound at 30 μM vs AMP at 200 μM
Experimental: The following biological test allows the determination of the efficacy of compounds of formula (1) onto AMPK protein.
AMPK enzyme activities were assayed by using a Delfia technology. AMPK enzyme activities were carried out in microtiter plates in the presence of a synthetic peptide substrate (AMARAASAAALARRR, the “AMARA” peptide) and activators in serial dilutions. Reactions were initiated by the addition of AMPK. Enzyme activity was assayed by using an anti-phosphoserine antibody to measure the quantity of phosphate incorporated into the AMARAA.
No: Number of the molecule
Activity: Ratio between the % of control (basal activity) of compound of formula (1) at 30 μM and the % of control (basal activity) of AMP (natural substrate) at 200 μM.

Molecule	Activity: Ratio between the % of control (basal activity) of compound of formula (1) at 30 μM and the % of control (basal activity) of AMP (natural substrate) at 200 μM
2,5-difluoro-3-(2-naphthyl)-5-phenyl-7H-thieno[2,3-b]pyridine-4,6-dione [No 162]	C (C≧75%)
2-chloro-5-(3-methoxyphenyl)-5-methyl-3-(p-tolyl)-7H-thieno[2,3-b]pyridine-4,6-dione [No 209]	A (0%<A<50%)
2-chloro-5-fluoro-3-(5-fluoro-2-hydroxy-phenyl)-5-phenyl-7H-thieno[2,3-b]pyridine-4,6-dione [No 221]	C (C≧75%)
2-chloro-5-methyl-3,5-bis(p-tolyl)-7H-thieno[2,3-b]pyridine-4,6-dione [No 154]	A (0%<A<50%)
5-fluoro-3-(2-naphthyl)-5-phenyl-7H-thieno[2,3-b]pyridine-4,6-dione [No 161]	C (C≧75%)
CC1(c2ccccc2)C(=O)Nc2sc(Cl)c(-c3ccc4ccccc4c3O)c2C1=O (centres unmarked) [No 7, 2-chloro-3-(1-hydroxy-2-naphthyl)-5-methyl-5-phenyl-7H-thieno[2,3-b]pyridine-4,6-dione]	A (0%<A<50%)
CC1(c2ccccc2)C(=O)Nc2scc(-c3ccc4ccccc4c3O)c2C1=O (centres unmarked) [No 8, 3-(1-hydroxy-2-naphthyl)-5-methyl-5-phenyl-7H-thieno[2,3-b]pyridine-4,6-dione]	A (0%<A<50%)
O=C1Nc2scc(-c3ccccc3)c2C(=O)C1(c1ccccc1)c1ccccc1 [No 9, 3,5,5-triphenyl-7H-thieno[2,3-b]pyridine-4,6-dione]	A (0%<A<50%)
O=C1Nc2scc(-c3ccccc3)c2C(=O)C1(Cc1ccccc1)c1ccccc1 (centres unmarked) [No 10, 5-benzyl-3,5-diphenyl-7H-thieno[2,3-b]pyridine-4,6-dione]	A (0%<A<50%)
CCC1(c2ccccc2)C(=O)Nc2scc(-c3ccccc3)c2C1=O (centres unmarked) [No 11, 5-ethyl-3,5-diphenyl-7H-thieno[2,3-b]pyridine-4,6-dione]	A (0%<A<50%)
CCOc1c(F)ccc(-c2c(Cl)sc3c2C(=O)C(C)(c2ccccc2)C(=O)N3)c1OC (centres unmarked) [No 12, 2-chloro-3-(3-ethoxy-4-fluoro-2-methoxy-phenyl)-5-methyl-5-phenyl-7H-thieno[2,3-b]pyridine-4,6-dione]	A (0%<A<50%)
COc1c(-c2c(Cl)sc3c2C(=O)C(C)(c2ccccc2)C(=O)N3)ccc(F)c1F (centres unmarked) [No 13, 2-chloro-3-(3,4-difluoro-2-methoxy-phenyl)-5-methyl-5-phenyl-7H-thieno[2,3-b]pyridine-4,6-dione]	A (0%<A<50%)
CC1(c2ccccc2)C(=O)Nc2scc(-c3ccc(F)c(F)c3O)c2C1=O (centres unmarked) [No 14, 3-(3,4-difluoro-2-hydroxy-phenyl)-5-methyl-5-phenyl-7H-thieno[2,3-b]pyridine-4,6-dione]	A (0%<A<50%)
COc1ccc(C2(C)C(=O)Nc3sc(Cl)c(-c4ccc(F)cc4O)c3C2=O)cc1 (centres unmarked) [No 15, 2-chloro-3-(4-fluoro-2-hydroxy-phenyl)-5-(4-methoxy-phenyl)-5-methyl-7H-thieno[2,3-b]pyridine-4,6-dione]	A (0%<A<50%)
